Measurements published in ChEMBL document CHEMBL3745638, “Synthesis and biological evaluation of a novel artesunate-podophyllotoxin conjugate as anticancer agent” (Bioorg Med Chem Lett, 2016).
Active and inactive are the calls of the source. The rule behind the calls is not given here.

Experiments:
K562 [1] = experiment: Antiproliferative activity against human K562 cells assessed as growth inhibition after 72 hrs by CCK-8 assay; type: functional, cell-based; conditions: K562, 72 h
HeLa = experiment: Antiproliferative activity against human HeLa cells assessed as growth inhibition after 72 hrs by CCK-8 assay; type: functional, cell-based
[2] = Antiproliferative activity against human K562/ADR cells assessed as growth inhibition after 72 hrs by CCK-8 assay; type: functional, cell-based
K562 [3] = experiment: Resistance factor, ratio of IC50 for human K562/ADR cells to IC50 for human K562 cells; type: functional
HepG2 = experiment: Antiproliferative activity against human HepG2 cells assessed as growth inhibition after 72 hrs by CCK-8 assay; type: functional, cell-based; conditions: HepG2, 72 h
HUVEC = experiment: Antiproliferative activity against HUVEC assessed as growth inhibition after 72 hrs by CCK-8 assay; type: cell-based; conditions: Homo sapiens
A549 = experiment: Antiproliferative activity against human A549 cells assessed as growth inhibition after 72 hrs by CCK-8 assay; type: functional, cell-based; conditions: A549, 72 h
K562/Adr [4] = experiment: Induction of apoptosis in human K562/ADR cells assessed as nuclear condensation at 0.1 uM after 48 hrs by Hoechst 33342 staining based fluorescence microscopy; type: functional, cell-based
K562/Adr [5] = experiment: Induction of apoptosis in human K562/ADR cells assessed as nuclear fragmentation at 0.1 uM after 48 hrs by Hoechst 33342 staining based fluorescence microscopy; type: functional, cell-based
K562/Adr [6] = experiment: Inhibition of P-glycoprotein in human K562/ADR cells at 0.1 uM after 48 hrs by Western blot analysis; type: cell-based
K562/Adr [7] = experiment: Induction of apoptosis in human K562/ADR cells assessed as necrotic cells at 0.1 uM after 48 hrs by Annexin V-APC/7-AAD staining based flow cytometry (reference value: 3.57%); type: functional
Tubulin (Homo sapiens) [8] = biological target: T1, Tubulin (Homo sapiens) (UniProt P68371+Q9H4B7+P0DPH7+P68366+Q13509+Q71U36+P04350+Q3ZCM7+P07437+P68363+Q9BQE3+Q6PEY2+Q13885+Q9BVA1+Q9BUF5); conditions: K562/Adr, 0.2 uM
Description: Inhibition of tubulin polymerization in human K562/ADR cells assessed as microtubule disruption at 0.2 uM after 8 hrs by DAPI staining based immunofluorescence microscopy

K562/Adr [9] = experiment: Induction of apoptosis in human K562/ADR cells assessed as early apoptotic cells at 0.1 uM after 48 hrs by Annexin V-APC/7-AAD staining based flow cytometry (reference value: 1.49%); type: functional
K562/Adr [10] = experiment: Induction of apoptosis in human K562/ADR cells assessed as late apoptotic cells at 0.1 uM after 48 hrs by Annexin V-APC/7-AAD staining based flow cytometry (reference value: 1.69%); type: functional
K562/Adr [11] = experiment: Induction of apoptosis in human K562/ADR cells assessed as viable cells at 0.1 uM after 48 hrs by Annexin V-APC/7-AAD staining based flow cytometry (reference value: 93.25%); type: functional; conditions: read-out: Activity
K562/Adr [12] = experiment: Induction of apoptosis in human K562/ADR cells assessed as induction of cell shrinkage at 0.1 uM after 48 hrs by Hoechst 33342 staining based fluorescence microscopy; type: functional
Tubulin (Homo sapiens) [13] = biological target: T1, Tubulin (Homo sapiens); conditions: K562/Adr, 0.2 uM; remark: listed apart in the source
Description: Inhibition of tubulin polymerization in human K562/ADR cells assessed as reduction in microtubule density at 0.2 uM after 8 hrs by DAPI staining based immunofluorescence microscopy

[14] = Cell cycle arrest in human K562/ADR cells assessed as accumulation in G2/M phase at 0.1 uM after 48 hrs by propidium iodide staining-based flow cytometry (reference value: 8.32 +/- 0.81%); type: functional
K562/Adr [15] = experiment: Induction of apoptosis in human K562/ADR cells assessed as nuclear condensation at 6.5 uM after 48 hrs by Hoechst 33342 staining based fluorescence microscopy; type: functional, cell-based
K562/Adr [16] = experiment: Induction of apoptosis in human K562/ADR cells assessed as necrotic cells at 6.5 uM after 48 hrs by Annexin V-APC/7-AAD staining based flow cytometry (reference value: 3.57%); type: functional
K562/Adr [17] = experiment: Induction of apoptosis in human K562/ADR cells assessed as late apoptotic cells at 6.5 uM after 48 hrs by Annexin V-APC/7-AAD staining based flow cytometry (reference value: 1.69%); type: functional
K562/Adr [18] = experiment: Induction of apoptosis in human K562/ADR cells assessed as viable cells at 6.5 uM after 48 hrs by Annexin V-APC/7-AAD staining based flow cytometry (reference value: 93.25%); type: functional; conditions: read-out: Activity
Tubulin (Homo sapiens) [19] = biological target: T1, Tubulin (Homo sapiens); experiment: Inhibition of tubulin polymerization in human K562/ADR cells assessed as reduction in microtubule density at 13 uM after 16 hrs by DAPI staining based immunofluorescence microscopy; type: cell-based
Tubulin (Homo sapiens) [20] = biological target: T1, Tubulin (Homo sapiens); experiment: Inhibition of tubulin polymerization in human K562/ADR cells assessed as microtubule disruption at 13 uM after 16 hrs by DAPI staining based immunofluorescence microscopy; type: cell-based
[21] = Cell cycle arrest in human K562/ADR cells assessed as accumulation in G2/M phase at 6.5 uM after 48 hrs by propidium iodide staining-based flow cytometry (reference value: 8.32 +/- 0.81%); type: functional
K562/Adr [22] = experiment: Induction of apoptosis in human K562/ADR cells assessed as nuclear fragmentation at 6.5 uM after 48 hrs by Hoechst 33342 staining based fluorescence microscopy; type: functional, cell-based
K562/Adr [23] = experiment: Induction of apoptosis in human K562/ADR cells assessed as early apoptotic cells at 6.5 uM after 48 hrs by Annexin V-APC/7-AAD staining based flow cytometry (reference value: 1.49%); type: functional
K562/Adr [24] = experiment: Inhibition of P-glycoprotein in human K562/ADR cells at 6.5 uM after 48 hrs by Western blot analysis; type: cell-based
K562/Adr [25] = experiment: Induction of apoptosis in human K562/ADR cells assessed as induction of cell shrinkage at 6.5 uM after 48 hrs by Hoechst 33342 staining based fluorescence microscopy; type: functional
K562/Adr [26] = experiment: Induction of apoptosis in human K562/ADR cells assessed as necrotic cells at 2.5 uM after 48 hrs by Annexin V-APC/7-AAD staining based flow cytometry (reference value: 3.57%); type: functional
K562/Adr [27] = experiment: Induction of apoptosis in human K562/ADR cells assessed as induction of cell shrinkage at 2.5 uM after 48 hrs by Hoechst 33342 staining based fluorescence microscopy; type: functional
K562/Adr [28] = experiment: Induction of apoptosis in human K562/ADR cells assessed as viable cells at 2.5 uM after 48 hrs by Annexin V-APC/7-AAD staining based flow cytometry (reference value: 93.25%); type: functional; conditions: read-out: Activity
Tubulin (Homo sapiens) [29] = biological target: T1, Tubulin (Homo sapiens); experiment: Inhibition of tubulin polymerization in human K562/ADR cells assessed as reduction in microtubule density at 5 uM after 8 hrs by DAPI staining based immunofluorescence microscopy; type: cell-based
K562/Adr [30] = experiment: Induction of apoptosis in human K562/ADR cells assessed as nuclear fragmentation at 2.5 uM after 48 hrs by Hoechst 33342 staining based fluorescence microscopy; type: functional, cell-based
Tubulin (Homo sapiens) [31] = biological target: T1, Tubulin (Homo sapiens); experiment: Inhibition of tubulin polymerization in human K562/ADR cells assessed as microtubule disruption at 5 uM after 8 hrs by DAPI staining based immunofluorescence microscopy; type: cell-based
[32] = Cell cycle arrest in human K562/ADR cells assessed as accumulation in G2/M phase at 2.5 uM after 48 hrs by propidium iodide staining-based flow cytometry (reference value: 8.32 +/- 0.81%); type: functional
K562/Adr [33] = experiment: Induction of apoptosis in human K562/ADR cells assessed as late apoptotic cells at 2.5 uM after 48 hrs by Annexin V-APC/7-AAD staining based flow cytometry (reference value: 1.69%); type: functional
K562/Adr [34] = experiment: Induction of apoptosis in human K562/ADR cells assessed as early apoptotic cells at 2.5 uM after 48 hrs by Annexin V-APC/7-AAD staining based flow cytometry (reference value: 1.49%); type: functional
K562/Adr [35] = experiment: Induction of apoptosis in human K562/ADR cells assessed as nuclear condensation at 2.5 uM after 48 hrs by Hoechst 33342 staining based fluorescence microscopy; type: functional, cell-based
K562/Adr [36] = experiment: Inhibition of P-glycoprotein in human K562/ADR cells at 2.5 uM after 48 hrs by Western blot analysis; type: cell-based

COc1cc([C@@H]2c3cc4c(cc3[C@@H](O[C@@H]3O[C@@H]5CO[C@@H](C)O[C@H]5[C@H](O)[C@H]3O)[C@H]3COC(=O)[C@H]23)OCO4)cc(OC)c1O [ETOPOSIDE]
IC50 (K562 [1]): 0.413 µM | IC50 (HeLa): 1.6 µM | IC50 [2]: 2.02 µM | Ratio IC50 (K562 [3]): 4.903 | IC50 (HepG2): 1.75 µM | IC50 (HUVEC): 1.34 µM | IC50 (A549): 2.68 µM

COc1cc([C@@H]2c3cc4c(cc3[C@H](O)[C@H]3COC(=O)[C@H]23)OCO4)cc(OC)c1OC [PODOFILOX]
Activity (K562/Adr [4]): Active | IC50 (K562 [1]): 0.006 µM | IC50 (HeLa): 0.012 µM | IC50 [2]: 0.085 µM | Activity (K562/Adr [5]): Active | Ratio IC50 (K562 [3]): 14.166 | inhibition (K562/Adr [6]): Active | IC50 (HepG2): 0.014 µM | Activity (K562/Adr [7]): 10.26% | inhibition (Tubulin (Homo sapiens) [8]): Active | Activity (K562/Adr [9]): 24.7% | Activity (K562/Adr [10]): 10.65% | viability at 0.1 µM (K562/Adr [11]): 54.4% | IC50 (HUVEC): 0.014 µM | Activity (K562/Adr [12]): Active | inhibition (Tubulin (Homo sapiens) [13]): Active | Activity [14]: 33.2% | IC50 (A549): 0.014 µM

C[C@H]1[C@H](OC(=O)CCC(=O)O)O[C@@H]2O[C@@]3(C)CC[C@H]4[C@H](C)CC[C@@H]1[C@@]24OO3 [ARTESUNATE]
Activity (K562/Adr [15]): Active | IC50 (K562 [1]): 6 µM | IC50 (HeLa): 19 µM | IC50 [2]: 6.26 µM | Activity (K562/Adr [16]): 7.2% | Activity (K562/Adr [17]): 9.31% | viability at 6.5 µM (K562/Adr [18]): 77.5% | Ratio IC50 (K562 [3]): 1.042 | IC50 (HepG2): 22.2 µM | inhibition (Tubulin (Homo sapiens) [19]): Active | inhibition (Tubulin (Homo sapiens) [20]): Active | Activity [21]: 16.9% | Activity (K562/Adr [22]): Active | IC50 (HUVEC): 1.09 µM | Activity (K562/Adr [23]): 5.97% | inhibition (K562/Adr [24]): Active | Activity (K562/Adr [25]): Active | IC50 (A549): 15.9 µM

COc1cc([C@@H]2c3cc4c(cc3[C@H](OC(=O)CCC(=O)O[C@H]3O[C@@H]5O[C@@]6(C)CC[C@H]7[C@H](C)CC[C@@H]([C@H]3C)[C@@]57OO6)[C@H]3COC(=O)[C@H]23)OCO4)cc(OC)c1OC
IC50 (K562 [1]): 0.453 µM | Activity (K562/Adr [26]): 6.39% | IC50 (HeLa): 0.936 µM | IC50 [2]: 2.02 µM | Ratio IC50 (K562 [3]): 4.454 | IC50 (HepG2): 0.672 µM | Activity (K562/Adr [27]): Active | viability at 2.5 µM (K562/Adr [28]): 88.1% | inhibition (Tubulin (Homo sapiens) [29]): Active | Activity (K562/Adr [30]): Active | inhibition (Tubulin (Homo sapiens) [31]): Active | Activity [32]: 21.4% | IC50 (HUVEC): 0.72 µM | Activity (K562/Adr [33]): 2.82% | Activity (K562/Adr [34]): 2.68% | Activity (K562/Adr [35]): Active | inhibition (K562/Adr [36]): Active | IC50 (A549): 3.01 µM
